Assay [1] addresses T1, 5-hydroxytryptamine receptor 1A (Homo sapiens, UniProt P08908).
T1 sequence (P08908 whole entry): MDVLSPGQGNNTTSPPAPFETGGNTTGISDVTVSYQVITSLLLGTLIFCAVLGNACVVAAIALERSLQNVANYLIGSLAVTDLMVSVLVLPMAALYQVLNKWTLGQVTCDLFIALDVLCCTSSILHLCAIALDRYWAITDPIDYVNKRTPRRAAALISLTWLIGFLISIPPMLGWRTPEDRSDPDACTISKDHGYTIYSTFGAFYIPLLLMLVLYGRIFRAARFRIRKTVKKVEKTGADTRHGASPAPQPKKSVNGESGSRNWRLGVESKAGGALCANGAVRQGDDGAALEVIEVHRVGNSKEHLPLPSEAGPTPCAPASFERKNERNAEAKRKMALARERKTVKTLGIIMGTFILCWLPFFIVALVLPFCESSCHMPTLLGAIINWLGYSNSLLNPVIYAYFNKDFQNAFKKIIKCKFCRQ
Put plainly: Binding affinity for 5-hydroxytryptamine 1A receptor determined using [3H]8-OH-DPAT as radioligand.

The subject of a further assay is Mus musculus. Kind of assay: In vivo inhibition of the apomorphine-induced climbing behavior in mice. The class given is functional.
Assay [2] concerns Rattus norvegicus. Kind of assay: Tested for occurrence of lower lip retraction in rat after po administration of the compound. The assay is classed as functional.
The test system of assay [3] is Rattus norvegicus. Kind of assay: In vivo suppression of the conditioned avoidance response (CAR) in rats after ip administration of the compound. The class given is functional.
In assay [4] the test system is Rattus norvegicus. Kind of assay: In vivo suppression of the conditioned avoidance response (CAR) in rats after po administration of the compound. The class given is functional.

By Ki is commonly meant a dissociation constant, usually derived from enzyme kinetics or from competition with a known ligand. The ED50 is the midpoint of the dose-response relation. Low values mean an effect at a small dose, high ones a need for a large dose.

Consider `COc1cccc(-c2cccc(CN3CCN(c4cccc5[nH]c(=O)oc45)CC3)c2)c1`, for which the Ki in assay [1] is 21 nM.

In turn, `c1ccc(-c2cccc(CN3CCN(c4cccc5c4OCCN5)CC3)c2)cc1` returned a Ki in assay [1] of 26 nM.

For `O=C(NCCN1CCN(c2cccc3nc(O)oc23)CC1)c1ccc(F)cc1`, the Ki in assay [1] was determined as 7.9 nM.

Turning to `c1ccc(-c2cccc(CN3CCN(c4cccc5ccoc45)CC3)c2)cc1`, in assay [1], the affinity, expressed as Ki, was 38 nM.

Compound `O=C1COc2c(cccc2N2CCN(Cc3cccc(-c4ccccc4)c3)CC2)N1` displayed a Ki in assay [1] of 49 nM.

In assay [1], `Oc1nc2cccc(N3CCN(Cc4cccc(-c5ccsc5)c4)CC3)c2o1` yielded a Ki of 17 nM. The ED50 was 0.2 mg/kg in the assay with Mus musculus, > 30 mg/kg in the assay with Rattus norvegicus [2] and > 20 mg/kg with Rattus norvegicus [3].

`COc1ccccc1N1CCN(CCNC(=O)c2ccc(F)cc2)CC1` had a Ki in assay [1] of 1 nM.

In turn, `Cn1c(=O)oc2c(N3CCN(Cc4cccc(-c5ccccc5)c4)CC3)cccc21` yielded a Ki in assay [1] of 130 nM.

Regarding `N#Cc1ccccc1-c1cccc(CN2CCN(c3cccc4nc(O)oc34)CC2)c1`, the affinity in assay [1], expressed as Ki, was 32 nM.

Compound `c1ccc(-c2cccc(CN3CCN(c4cccc5c4OCCO5)CC3)c2)cc1` displayed a Ki in assay [1] of 0.91 nM.

In assay [1], `O=c1[nH]c2cccc(N3CCN(Cc4cc(-c5ccccc5)ccc4F)CC3)c2o1` showed a Ki of 41 nM.

Compound `N#Cc1cccc(-c2cccc(CN3CCN(c4cccc5nc(O)oc45)CC3)c2)c1` yielded an inhibitory constant (Ki) in assay [1] of 23 nM.

Compound `Oc1nc2cccc(N3CCN(Cc4cc(-c5ccc(F)cc5)ccn4)CC3)c2o1` returned a Ki in assay [1] of 16 nM. Moreover, the results for the ED50 with Mus musculus, in the assay with Rattus norvegicus [2] and with Rattus norvegicus [4] were 0.1 mg/kg, > 30 mg/kg and < 10 mg/kg, respectively.

In assay [1], `Fc1ccc(-c2ccc(CN3CCN(c4cccc5ccoc45)CC3)[nH]2)cc1` [ELOPIPRAZOLE] came in with an inhibition constant (Ki) of 1.5 nM.

Turning to `CN1CCN(C2=Nc3cc(Cl)ccc3Nc3ccccc32)CC1` [CLOZAPINE], the ED50 with Mus musculus came to 22 mg/kg; in the assay with Rattus norvegicus [4], 32 mg/kg.

On to `Cc1cccc(-c2cccc(CN3CCN(c4cccc5[nH]c(=O)oc45)CC3)c2)c1`, for which affinity in assay [1] was put at a Ki of 35 nM.

The compound `c1ccc(-c2cccc(CN3CCN(c4cccc5c4OCO5)CC3)c2)cc1` came in with a Ki in assay [1] of 15 nM.

In the case of `O=C(CCCN1CCC(O)(c2ccc(Cl)cc2)CC1)c1ccc(F)cc1` [HALOPERIDOL], the ED50 in the assay with Mus musculus amounted to 0.2 mg/kg; in the assay with Rattus norvegicus [4], 0.3 mg/kg.

In assay [1], `Oc1nc2cccc(N3CCN(Cc4cccc(-c5ccc(F)cc5)c4)CC3)c2o1` showed an inhibition constant Ki of 14 nM.

In assay [1], `O=c1[nH]c2cccc(N3CCN(Cc4cccc(-c5ccccc5)c4)CC3)c2o1` [BIFEPRUNOX] had a Ki of 9.3 nM. The figures for the ED50 with Mus musculus, with Rattus norvegicus [2] and with Rattus norvegicus [4] were 0.1 mg/kg, 10 mg/kg and 0.8 mg/kg, respectively.

As to `Cc1nc2n(c(=O)c1CCN1CCC(c3noc4cc(F)ccc34)CC1)CCCC2` [RISPERIDONE], the ED50 with Mus musculus came out at 0.1 mg/kg; with Rattus norvegicus [4] it was 1 mg/kg.

In turn, `c1ccc(-c2cccc(CN3CCN(c4cccc5c4CCCN5)CC3)c2)cc1` displayed a Ki in assay [1] of 85 nM.

As to `O=c1[nH]c2cccc(N3CCN(Cc4ccnc(-c5ccc(F)cc5)c4)CC3)c2o1`, the Ki in assay [1] worked out at 21 nM.

On to `Oc1nc2cccc(N3CCN(Cc4cccc(-c5cccc(Cl)c5)c4)CC3)c2o1`, for which, in assay [1], the Ki amounted to 42 nM.

Compound `Oc1nc2cccc(N3CCN(Cc4ccc(O)c(-c5ccccc5)c4)CC3)c2o1` gave a Ki in assay [1] of 7.6 nM. Moreover, the ED50 with Mus musculus was 7 mg/kg; in the assay with Rattus norvegicus [2] it was > 30 mg/kg; in the assay on Rattus norvegicus [3], 20 mg/kg.

Compound `O=c1[nH]c2cccc(N3CCN(Cc4cccc(-c5cccs5)c4)CC3)c2o1` showed a Ki in assay [1] of 32 nM.

For `Oc1nc2cccc(N3CCN(Cc4cccc(-c5ccc(F)cc5)n4)CC3)c2o1`, in assay [1], the Ki was 200 nM.

Turning to `Oc1nc2cccc(N3CCN(Cc4cncc(-c5ccccc5)c4)CC3)c2o1`, in assay [1], the affinity, expressed as Ki, was 7.8 nM. Moreover, the ED50 with Mus musculus turned out to be 0.1 mg/kg; with Rattus norvegicus [2], 3 mg/kg; in the assay on Rattus norvegicus [4], 0.4 mg/kg.
